One may read the viability as the share of living cells, or the viability signal relative to a control. Read a high viability as less harm to the cells.

The nature of data set [1]: Cell viability by MTT assay. In kind it is cell-based, mouse. To be noted: mouse, BV-2 microglial cells; MTT assay after treatment with 100 μM of each compound for 24 h; mean ± SD. As for the experimental part:
(§1) The BV-2 mouse microglial cells were generously provided by Dr. Sun Yeou Kim at Kyunghee University (Suwon, Korea). The cells were maintained in DMEM containing 10% FBS with 1% PS at 37 °C in a humidified atmosphere of 95% air and 5% CO2. All tested fractions and samples were dissolved in DMSO (final concentration in cultures ≤0.1%).
(§2) To evaluate NO production, we seeded BV-2 cells in 96-well plates (4 × 10^5 cells/mL) for 24 h and then treated them with various concentrations of the samples for 1 h before exposure to 100 ng/mL of LPS. After the 24 h incubation, the nitrite in the culture media was measured to assess NO production in the BV-2 cells with the Griess reagent (1% sulfanilamide and 0.1% naphtylethylenediamine dihydrochloride in 2% phosphoric acid). In 96-well plates, 100 μL of sample aliquots were mixed with 100 μL of Griess reagent and incubated at room temperature for 15 min. The absorbance at 550 nm was measured on a microplate reader. The concentration was determined with a nitrite standard curve. Cell viability was assessed by the MTT assay. After exposing the cells to 2 mg/mL MTT for 2 h, the absorbance was measured by an ELISA plate reader at 562 nm.
Background: Tetrazolium assays rely on reduction of a dye to a coloured formazan, in cell work by metabolically active cells.

Data set [2] deals with NO production in LPS-activated BV-2 cells. As to the kind of experiment: NO production assay (Griess reagent) in LPS-activated BV-2 cells. Type of data set: cell-based. Particulars: Mus musculus; LPS-stimulated BV-2 cells; samples 1 h before 100 ng/mL LPS, 24 h incubation; read-out: IC50, concentration that caused 50% inhibition of NO production. The protocol: as §1, §2
For orientation: Griess reagent forms a coloured azo dye with nitrite.

Data set [3] has as its system cyclooxygenase-2 (COX-2) protein expression. Put plainly: Western blot of COX-2 expression in LPS-activated BV-2 microglia. Type of data set: cell-based, mouse. To be noted: result in words. As for the experimental part:
Cells were harvested and lysed with radioimmunoprecipitation (RIPA) buffer (Bio-Rad, Hercules, CA USA). Cell lysates were centrifuged, and the supernatant was collected. The protein concentration was determined by protein assay reagents (Bio-Rad). The proteins were separated onto 10% SDS-polyacrylamide gel and transferred to polyvinylidene fluoride (PVDF) membrane. The membranes were blocked with 5% non-fat dry milk in Tris-buffered saline with 0.1% Tween-20 (TBS-T) buffer for 1 h at room temperature and then incubated with primary antibodies in TBS-T buffer containing 1% non-fat dry milk overnight at 4 °C. The membranes were washed with TBS-T buffer and incubated with goat anti-rabbit or anti-mouse horseradish peroxidase-conjugated IgG secondary antibodies from Santa Cruz Biotechnology (Santa Cruz, CA, USA) for 2 h. The membranes were washed with TBS-T buffer, and the antigen-antibody complex was detected with an enhanced chemiluminescence detection system (GE Healthcare, Milwaukee, MI, USA).
A general note: A western blot detects proteins with antibodies after separation by electrophoresis.

The test system of data set [4] is TNF-α. As to the kind of experiment: TNF-α ELISA in LPS-activated BV-2 microglia. Type of data set: cell-based, mouse. To be noted: pre-treatment, dose-dependent, result in words. The protocol: (§3) BV-2 microglial cells were cultured in 96-well plates, preincubated for 30 min. with different concentrations of compounds 1 and 7 and then stimulated for 24 h with LPS (Sigma-Aldrich Co.). Supernatant from the culture (100 μL) was collected to determine the concentration of PGE2, TNF-α, IL-1β, and IL-6, respectively, with ELISA kits (TNF-α, Abcam, Cambridge, MA, USA; PGE2, IL-1β, and IL-6, R&D Systems, Minneapolis, MN, USA).

Data set [5] deals with BV-2 cells. As to the kind of experiment: Cell viability by MTT assay. Type of data set: cell-based, mouse. To be noted: BV-2 cells, result in words. The protocol:
as §1, §2

The subject of data set [6] is IL-6. As to the kind of experiment: IL-6 ELISA in LPS-activated BV-2 microglia. In kind it is cell-based, mouse. To be noted: pre-treatment, dose-dependent, result in words. The protocol:
as §3

Data set [7] deals with PGE2. As to the kind of experiment: PGE2 ELISA in LPS-activated BV-2 microglia. In kind it is cell-based, mouse. To be noted: pre-treatment, dose-dependent, result in words. As for the experimental part:
as §3

Data set [8] has as its system IL-1β. Put plainly: IL-1β ELISA in LPS-activated BV-2 microglia. In kind it is cell-based, mouse. Particulars: pre-treatment, dose-dependent, result in words. As for the experimental part: as §3

Take `C=C1[C@@H]2CC[C@H]3[C@]4(C)C[C@H](O[C@@H]5O[C@H](CO)[C@@H](O)[C@H](O)[C@H]5O)CC(C)(C)[C@H]4CC[C@]3(C2)[C@H]1O` [Compound 2, creticoside A]: the viability at 24 h, 100 μM in data set [1] turned out to be 95.7 ± 4%. Besides, the IC50 in data set [2] was found to be 92 µM.
For the molecule `C=C1[C@@H]2CC[C@H]3[C@]4(C)C[C@H](O)CC(C)(C)[C@H]4[C@H](O)C[C@]3(C2)[C@H]1O` [Compound 6, 2β,6β,15α-trihydroxy-ent-kaur-16-ene], the viability at 24 h, 100 μM in data set [1] worked out at 85.9 ± 0.1%. Further, the IC50 in data set [2] was 137 µM.
On the same counts, the results for `C=C1[C@@H]2CC[C@H]3[C@]4(C)C[C@H](O[C@@H]5O[C@H](CO)[C@@H](O)[C@H](O)[C@H]5O)CC(C)(C)[C@H]4CC[C@]3([C@@H]2O)[C@H]1O` [Compound 8, pterokaurane P1 2-O-β-D-glucopyranoside] are 91.7 ± 3.7% and 101 µM.
For the molecule `C=C1[C@@H]2CC[C@H]3[C@]4(C)C[C@H](O)CC(C)(C)[C@H]4CC[C@]3([C@@H]2O)[C@H]1O` [Compound 7, pterokaurane P1], the “Protein level of COX-2 increased by LPS treatment” value in data set [3] is reported as “down-regulated”. Further, in data set [4], the “Level of TNF-α” value is “effectively decreased”. Further, the Cytotoxicity entry in data set [5] is “without any cytotoxicity”. The viability at 24 h, 100 μM in data set [1] turned out to be 88.7 ± 2.4%. In data set [6], the “Level of IL-6” value is reported as “effectively decreased”. In data set [2], the IC50 is 10.8 µM. Also, the “Level of PGE2” value in data set [7] is reported as “effectively decreased”. Moreover, the “Level of IL-1β” value in data set [8] is given as “effectively decreased”.
Molecule `C=C1[C@@H]2CC[C@H]3[C@]4(C)C[C@H](O)C[C@](C)(CO)[C@H]4CC[C@]3(C2)[C@H]1O` [Compound 3, pterokaurane M1] came in with a viability at 24 h, 100 μM in data set [1] of 87.7 ± 2.9%. Further, the IC50 in data set [2] turned out to be 84 µM.
The like results for `CC1(C)C[C@@H](O[C@@H]2O[C@H](CO)[C@@H](O)[C@H](O)[C@H]2O)C[C@]2(C)[C@@H]1CC[C@@]13C[C@@H](CC[C@H]12)[C@](C)(O[C@@H]1O[C@H](CO)[C@@H](O)[C@H](O)[C@H]1O)C3` [Compound 10, 2β,16α-dihydroxy-ent-kaurane 2,16-di-O-β-D-glucopyranoside] were, in that order, 88.2 ± 8% and 182 µM.
With `C=C1[C@@H]2CC[C@H]3[C@]4(C)C[C@H](O[C@@H]5O[C@H](CO)[C@@H](O)[C@H](O)[C@H]5O)C[C@@](C)(CO)[C@H]4CC[C@]3(C2)[C@H]1O` [Compound 5, 2β,15α,19-trihydroxy-ent-kaur-16-ene 2-O-β-D-gluco-pyranoside], the viability at 24 h, 100 μM in data set [1] stood at 73.6 ± 2.9%. For the same molecule, the IC50 in data set [2] was 148 µM.
`C=C1[C@@H]2CC[C@H]3[C@]4(C)C[C@H](O)CC(C)(C)[C@H]4CC[C@]3(C2)[C@H]1O` [Compound 1, 2β,15α-dihydroxy-ent-kaur-16-ene]: in data set [3], the “Protein level of COX-2 increased by LPS treatment” value is reported as “down-regulated”. In addition, the “Level of TNF-α” value in data set [4] is reported as “effectively decreased”. Besides, the Cytotoxicity entry in data set [5] is reported as “without any cytotoxicity”. This molecule also showed a viability at 24 h, 100 μM in data set [1] of 90.7 ± 7.3%. In addition, the “Level of IL-6” value in data set [6] was “effectively decreased”. Moreover, the IC50 in data set [2] turned out to be 13.9 µM. Moreover, in data set [7], the “Level of PGE2” value was “effectively decreased”. The “Level of IL-1β” value in data set [8] is reported as “effectively decreased”.
In data set [1], `CC1(C)C[C@@H](O)C[C@]2(C)[C@@H]1CC[C@@]13C[C@@H](CC[C@H]12)[C@](C)(O)C3` [Compound 9, 2β,16α-dihydroxy-ent-kaurane] yielded a viability at 24 h, 100 μM of 97.5 ± 1.3%. Besides, the IC50 in data set [2] worked out at 122 µM.
On the same counts, the results for `C[C@]1(CO)C[C@@H](O)C[C@]2(C)[C@@H]1CC[C@@]13C[C@@H](CC[C@H]12)[C@](C)(O)C3` [Compound 11, pterokaurane R] are 83.2 ± 10.2% and 171 µM.
The like results for `COC(=O)[C@@H](N)CCCNC(N)=N[N+](=O)[O-]` [L-NAME, Nω-nitro-L-arginine methyl ester, reference compound] were, in that order, 100 ± 5% and 53.5 µM.
`C=C1[C@@H]2CC[C@H]3[C@]4(C)C[C@H](O[C@@H]5O[C@H](CO)[C@@H](O)[C@H](O)[C@H]5O)C[C@](C)(CO)[C@H]4CC[C@]3(C2)[C@H]1O` [Compound 4, pterokaurane M1 2-O-β-D-glucopyranoside] gave a viability at 24 h, 100 μM in data set [1] of 90.5 ± 10.2%. The IC50 in data set [2] worked out at 148 µM.
On the same counts, the results for `CC1(C)C[C@@H](O[C@@H]2O[C@H](CO)[C@@H](O)[C@H](O)[C@H]2O)C[C@]2(C)[C@@H]1CC[C@@]13C[C@@H](CC[C@H]12)[C@@](O)(CO)C3` [Compound 12, 2β,16α,17-trihydroxy-ent-kaurane 2-O-β-D-glucopyranoside] are 93.6 ± 8.3% and 114 µM.

These data come from article PMC6155576, “Anti-Neuroinflammatory ent-Kaurane Diterpenoids from Pteris multifida Roots” (Molecules : A Journal of Synthetic Chemistry and Natural …, 2016).
